Patent US20240408057A1, “Composition for preventing or treating cachexia and muscle loss” (METAFINES.CO.LTD., priority 2023, published 2024)

Key:
[1] = tested on: Myogenin; assay: Myogenin expression (Western blot) in CCM-treated C2C12 myotubes; assay type: cell-based, mouse; settings: 72 hours, compared to other experimental groups (components alone and in combination)
Description: (§1) A C2C12 cell line was dispensed into a 6-well plate at 4.0×10^5 cells/well, and then cultured in DMEM medium containing 10% fetal bovine serum (FBS) under 37° C. and 5% CO2 conditions for one day. When the cell density reached about 80%, the medium was replaced with a differentiation medium and the cells were cultured for additional 3 days. After confirming completion of differentiation of the cells, the cells were treated with a mixture, in which the differentiation medium and cancer-cell conditioned medium (CCM) were mixed at a 1:1 ratio, to form a control group, and simultaneously, a test group was set up by treating with the calcium salts of Preparation Examples 1 to 3 according to three predetermined concentrations.
(§2) A C2C12 cell line was dispensed into a 6-well plate at 4.0×10^5 cells/well, and then cultured in DMEM medium containing 10% fetal bovine serum (FBS) under 37° C. and 5% CO2 conditions for one day. When the cell density reached about 80%, the medium was replaced with a differentiation medium and the cells were cultured for additional 3 days.

[2] = tested on: Atrogin1; assay: Atrogin1 expression in mouse muscle tissue, CT26 cachexia model; assay type: in vivo, Balb/c mice; settings: CT26 Balb/c cachexia model, 21 days
Description: (§4) The mice were sacrificed, and the skeletal muscle in the quadriceps was extracted during autopsy, and tissue was homogenized, and proteins were extracted through RIPA lysis buffer, followed by Western blot analysis.

[3] = tested on: PDK-4; assay: PDK-4 expression (Western blot) in CCM-treated C2C12 myotubes; assay type: cell-based, mouse
Description: (§3) C2C12 cell line was dispensed into a 6-well plate at 4.0×10^5 cells/well and cultured in DMEM medium containing 10% fetal bovine serum (FBS) under 37° C. and 5% CO2 conditions for one day. When the cell density reached about 80%, the medium was replaced with a differentiation medium and the cells were cultured for additional 3 days. […] After culturing for 72 hours, the cells were collected and analyzed for PDK-4, which is a target marker, by Western blot and the results are summarized in FIG. 6.
as §2
Subsequently, MuRF1, Atrogin1, MyHC, Myogenin (muscle markers) and Calpain 3, PDK-4, and GDF-15 (other target markers for muscle related disease) were analyzed using Western blot, and the relative expression levels for the markers are shown in FIGS. 26 and 28.

[4] = tested on: MyHC; assay: MyHC expression in mouse muscle tissue, CT26 cachexia model; assay type: in vivo, Balb/c mice; settings: CT26 Balb/c cachexia model, 21 days; G4 PO 200 mpk, G5 IV 100 mpk, G6 IV 200 mpk; vs vehicle control G2
Description: as §4

[5] = tested on: MuRF1; assay: MuRF1 expression (Western blot) in CCM-treated C2C12 myotubes; assay type: cell-based, mouse; settings: 72 hours, compared to other experimental groups (components alone and in combination)
Description: as §1, §2

[6] = Drug concentration in blood and pharmacokinetics factors after IV and PO administration; assay type: in vivo; settings: SD rats
Description: After the administration of each individual rat, blood was collected according to the elapsed time (0 to 48 hours), centrifuged, and the concentration of the administered drug in the blood and the pharmacokinetic factors (PK parameter) of the obtained plasma were analyzed through LC/MS/MS analysis, and the results are summarized in Table 1 below.

[7] = tested on: GDF-15; assay: GDF-15 expression (Western blot) in CCM-treated C2C12 myotubes; assay type: cell-based, mouse; settings: C2C12 myotubes + CCM, 72 hours; comparison experiment with components alone and in combination
Description: as §3
The analysis was performed in the same manner as in Experimental Example 4-1 except for analyzing GDF-15 as a target marker for a Western blot, and the results are summarized in FIGS. 8 and 9.
The analysis was performed in the same manner as in Experimental Example 3-1 except for analyzing PDK-4 as a target marker for Western blot, and the results are summarized in FIGS. 10 and 11.
as §2

[8] = Rotarod-treadmill test; assay type: in vivo, Balb/c mice; settings: CT26 Balb/c cachexia model; G6 IV 200 mpk
Description: After the animal was carefully placed on a Rotarod-treadmill (JD-A-07RA5, B.S Technolab Inc., Korea), and the measurement was made for 300 seconds while increasing the rotation speed from 4 rpm to 40 rpm at regular intervals and, and the results are summarized in FIG. 53A.

[9] = tested on: Atrogin1; assay: Atrogin1 expression (Western blot) in CCM-treated C2C12 myotubes; assay type: cell-based, mouse; settings: 72 hours, compared to other experimental groups (components alone and in combination)
Description: as §1, §2

[10] = tested on: lactate; assay: Lactate in mouse blood, CT26 cachexia model; assay type: in vivo, Balb/c mice; settings: CT26 Balb/c cachexia model, 21 days; G4 PO 200 mpk, G5 IV 100 mpk, G6 IV 200 mpk; vs vehicle control G2
Description: The mice were sacrificed, and IL-1β and lactate were analyzed using the blood serum collected at autopsy, and the results are summarized in FIGS. 48A and 48B.
In FIG. 48, each group represents the following.

[11] = Wire hanging test; assay type: in vivo, Balb/c mice; settings: CT26 Balb/c cachexia model; G4 to G6; compared to G3 megestrol (positive control)
Description: Along with the above, a wire hanging test was performed once a week, and the animal was placed on top of a wire cage, and then turned the cage upside down and hung over the home cage, and the waiting time until the animal fell was recorded and summarized in FIG. 53B.

[12] = tested on: MyHC; assay: MyHC expression (Western blot) in CCM-treated C2C12 myotubes; assay type: cell-based, mouse; settings: 72 hours, compared to other experimental groups (components alone and in combination)
Description: as §1, §2

[13] = PO 2,000 mg/kg (1,000 mg/kg, BID), 1 day
[14] = PO 2,000 mg/kg (1,000 mg/kg, BID), 6 days

O=C([O-])C(Cl)Cl.O=C1OC(C(O)CO)C([O-])=C1O.[Ca+2] (stereo not drawn) [Preparation Example 1, calcium salts of ascorbic acid and dichloroacetic acid]
expression of Myogenin [1]: excellent effect of inhibiting the decrease of expression
expression level of Atrogin1 in quadriceps ([2]; G4 PO 200 mpk, G5 IV 100 mpk, G6 IV 200 mpk, vs vehicle control G2): decrease in the expression levels
expression level of Atrogin1 in quadriceps ([2]; G4 to G6, compared to G3 megestrol 125 mpk oral): excellent effects decreasing the expression levels
expression of PDK-4 ([3]; C2C12 myotubes + CCM, 72 hours, comparison experiment with components alone and in combination): inhibited
expression level of PDK-4 ([3]; C2C12 myotubes, differentiation medium:CCM 1:1, 72 hours, three predetermined concentrations, vs CCM control): expression was inhibited
expression level of MyHC in quadriceps [4]: increase in the expression levels
expression of MuRF1 [5]: excellent effect of inhibiting the increase of expression
AUClast ([6]; IV 200 mg/kg, 1 day): 19770 ng·h/mL
Cmax ([6]; IV 200 mg/kg, 1 day): 30240 ng/mL
Tmax ([6]; IV 200 mg/kg, 1 day): 0.25 h
t1/2 ([6]; IV 200 mg/kg, 1 day): 0.27 h
AUClast ([6]; IV 200 mg/kg, 6 days): 7980 ng·h/mL
Cmax ([6]; IV 200 mg/kg, 6 days): 2700 ng/mL
Tmax ([6]; IV 200 mg/kg, 6 days): 0.00 h
t1/2 ([6]; IV 200 mg/kg, 6 days): 2.72 h
AUClast ([6]; PO 200 mg/kg, 1 day): 38780 ng·h/mL
Cmax ([6]; PO 200 mg/kg, 1 day): 23910 ng/mL
Tmax ([6]; PO 200 mg/kg, 1 day): 0.50 h
t1/2 ([6]; PO 200 mg/kg, 1 day): 0.59 h
AUClast ([6]; PO 200 mg/kg, 6 days): 34620 ng·h/mL
Cmax ([6]; PO 200 mg/kg, 6 days): 6260 ng/mL
Tmax ([6]; PO 200 mg/kg, 6 days): 0.00 h
t1/2 ([6]; PO 200 mg/kg, 6 days): 2.72 h
AUClast ([6]; PO 500 mg/kg, 1 day): 353650 ng·h/mL
Cmax ([6]; PO 500 mg/kg, 1 day): 66440 ng/mL
Tmax ([6]; PO 500 mg/kg, 1 day): 1.50 h
t1/2 ([6]; PO 500 mg/kg, 1 day): 4.14 h
AUClast ([6]; PO 500 mg/kg, 6 days): 147850 ng·h/mL
Cmax ([6]; PO 500 mg/kg, 6 days): 21280 ng/mL
Tmax ([6]; PO 500 mg/kg, 6 days): 0.00 h
t1/2 ([6]; PO 500 mg/kg, 6 days): 5.58 h
AUClast [6, 13]: 889770 ng·h/mL
Cmax [6, 13]: 130920 ng/mL
Tmax [6, 13]: 1.75 h
t1/2 [6, 13]: 5.64 h
AUClast [6, 14]: 575250 ng·h/mL
Cmax [6, 14]: 77200 ng/mL
Tmax [6, 14]: 0.00 h
t1/2 [6, 14]: 3.11 h
expression of GDF-15 [7]: inhibited
Rotarod-treadmill test improvement compared to G2 [8]: about 24%
expression of Atrogin1 [9]: excellent effect of inhibiting the increase of expression
lactate in blood serum [10]: decrease in the expression levels
wire hanging test [11]: level similar
expression of MyHC [12]: excellent effect of inhibiting the decrease of expression
